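Growth conditions: 96-well plates. Treatment: test compound, 48 hours, 5 concentrations. Analysis: linear interpolation between bracketing concentrations; unreached endpoints set to highest concentration. GI50 marks 50% less growth. TGI denotes the concentration required for complete inhibition of growth.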
Tests used:
Test in all cases: growth of human tumour cells (NCI), 48 h
SK-MEL-5 melanoma = test system: SK-MEL-5 melanoma
DU-145 prostate = test system: DU-145 prostate
MOLT-4 leukemia = test system: MOLT-4 leukemia
HOP-92 NSCLC = test system: HOP-92 NSCLC
T-47D breast = test system: T-47D breast
BT-549 breast = test system: BT-549 breast
M14 melanoma = test system: M14 melanoma
SK-OV-3 ovarian = test system: SK-OV-3 ovarian
SF-539 CNS = test system: SF-539 CNS
HCC-2998 colon = test system: HCC-2998 colon
SK-MEL-2 melanoma = test system: SK-MEL-2 melanoma
PC-3 prostate = test system: PC-3 prostate
HCT-116 colon = test system: HCT-116 colon
786-0 renal = test system: 786-0 renal
OVCAR-8 ovarian = test system: OVCAR-8 ovarian
HS 578T breast = test system: HS 578T breast
SF-268 CNS = test system: SF-268 CNS
SNB-75 CNS = test system: SNB-75 CNS
NCI-H522 lung = test system: NCI-H522 lung
NCI-H23 lung = test system: NCI-H23 lung
SR leukemia = test system: SR leukemia
HCT-15 colon = test system: HCT-15 colon
EKVX NSCLC = test system: EKVX NSCLC
A498 renal = test system: A498 renal
HOP-62 NSCLC = test system: HOP-62 NSCLC
RPMI-8226 leukemia = test system: RPMI-8226 leukemia
A549 NSCLC = test system: A549 NSCLC
IGROV1 ovarian = test system: IGROV1 ovarian
RXF 393 renal = test system: RXF 393 renal
CCRF-CEM leukemia = test system: CCRF-CEM leukemia
U251 CNS = test system: U251 CNS
SK-MEL-28 melanoma = test system: SK-MEL-28 melanoma
OVCAR-3 ovarian = test system: OVCAR-3 ovarian
OVCAR-4 ovarian = test system: OVCAR-4 ovarian
K-562 leukemia = test system: K-562 leukemia
KM12 colon = test system: KM12 colon
MDA-MB-231 breast = test system: MDA-MB-231 breast
NCI-H226 lung = test system: NCI-H226 lung
NCI-H460 lung = test system: NCI-H460 lung
UACC-257 melanoma = test system: UACC-257 melanoma
SW-620 colon = test system: SW-620 colon
UACC-62 melanoma = test system: UACC-62 melanoma
TK-10 renal = test system: TK-10 renal
UO-31 renal = test system: UO-31 renal
SNB-19 CNS = test system: SNB-19 CNS
MALME-3M melanoma = test system: MALME-3M melanoma
HL-60(TB) leukemia = test system: HL-60(TB) leukemia

C/C(=N/NC(=S)Nc1ccccc1)c1nc2ccc(Cl)cc2[nH]1
GI50 (SK-MEL-5 melanoma): 98.9 nM
TGI (SK-MEL-5 melanoma): 457 nM
GI50 (DU-145 prostate): 82.1 nM
TGI (DU-145 prostate): 645 nM
GI50 (MOLT-4 leukemia): 86 nM
TGI (MOLT-4 leukemia): 1100 nM
GI50 (HOP-92 NSCLC): 585 nM
TGI (HOP-92 NSCLC): 1520 nM
GI50 (T-47D breast): 292 nM
TGI (T-47D breast): 1560 nM
GI50 (BT-549 breast): 135 nM
TGI (BT-549 breast): 924 nM
GI50 (M14 melanoma): 76.3 nM
TGI (M14 melanoma): 260 nM
GI50 (SK-OV-3 ovarian): 246 nM
TGI (SK-OV-3 ovarian): 1390 nM
GI50 (SF-539 CNS): 129 nM
TGI (SF-539 CNS): 686 nM
GI50 (HCC-2998 colon): 135 nM
TGI (HCC-2998 colon): 725 nM
GI50 (SK-MEL-2 melanoma): 252 nM
TGI (SK-MEL-2 melanoma): 901 nM
GI50 (PC-3 prostate): 236 nM
TGI (PC-3 prostate): 2230 nM
GI50 (HCT-116 colon): 81.1 nM
TGI (HCT-116 colon): 771 nM
GI50 (786-0 renal): 91.8 nM
TGI (786-0 renal): 368 nM
GI50 (OVCAR-8 ovarian): 160 nM
TGI (OVCAR-8 ovarian): 1150 nM
GI50 (HS 578T breast): 570 nM
TGI (HS 578T breast): 1960 nM
GI50 (SF-268 CNS): 74.7 nM
TGI (SF-268 CNS): 858 nM
GI50 (SNB-75 CNS): 328 nM
TGI (SNB-75 CNS): 1040 nM
GI50 (NCI-H522 lung): 194 nM
TGI (NCI-H522 lung): 821 nM
GI50 (NCI-H23 lung): 406 nM
TGI (NCI-H23 lung): 1520 nM
GI50 (SR leukemia): 88.1 nM
TGI (SR leukemia): 1230 nM
GI50 (HCT-15 colon): 65.6 nM
TGI (HCT-15 colon): 6900 nM
GI50 (EKVX NSCLC): 100 nM
TGI (EKVX NSCLC): 959 nM
GI50 (A498 renal): 80.6 nM
TGI (A498 renal): 708 nM
GI50 (HOP-62 NSCLC): 101 nM
TGI (HOP-62 NSCLC): 935 nM
GI50 (RPMI-8226 leukemia): 202 nM
TGI (RPMI-8226 leukemia): 3360 nM
GI50 (A549 NSCLC): 217 nM
TGI (A549 NSCLC): 1410 nM
GI50 (IGROV1 ovarian): 140 nM
TGI (IGROV1 ovarian): 1190 nM
GI50 (RXF 393 renal): 165 nM
TGI (RXF 393 renal): 783 nM
GI50 (CCRF-CEM leukemia): 39 nM
TGI (CCRF-CEM leukemia): 7180 nM
GI50 (U251 CNS): 99.6 nM
TGI (U251 CNS): 1020 nM
GI50 (SK-MEL-28 melanoma): 180 nM
TGI (SK-MEL-28 melanoma): 872 nM
GI50 (OVCAR-3 ovarian): 77.7 nM
TGI (OVCAR-3 ovarian): 1260 nM
GI50 (OVCAR-4 ovarian): 46.6 nM
TGI (OVCAR-4 ovarian): 2420 nM
GI50 (K-562 leukemia): 147 nM
TGI (K-562 leukemia): 13400 nM
GI50 (KM12 colon): 140 nM
TGI (KM12 colon): 826 nM
GI50 (MDA-MB-231 breast): 205 nM
TGI (MDA-MB-231 breast): 1790 nM
GI50 (NCI-H226 lung): 134 nM
TGI (NCI-H226 lung): 925 nM
GI50 (NCI-H460 lung): 35.1 nM
TGI (NCI-H460 lung): 522 nM
GI50 (UACC-257 melanoma): 236 nM
TGI (UACC-257 melanoma): 850 nM
GI50 (SW-620 colon): 208 nM
TGI (SW-620 colon): 990 nM
GI50 (UACC-62 melanoma): 126 nM
TGI (UACC-62 melanoma): 425 nM
GI50 (TK-10 renal): 539 nM
TGI (TK-10 renal): 2610 nM
GI50 (UO-31 renal): 73.8 nM
TGI (UO-31 renal): 795 nM
GI50 (SNB-19 CNS): 250 nM
TGI (SNB-19 CNS): 1710 nM
GI50 (MALME-3M melanoma): 73.7 nM
TGI (MALME-3M melanoma): 401 nM
GI50 (HL-60(TB) leukemia): 101 nM
TGI (HL-60(TB) leukemia): 503 nM

— PubChem BioAssay (NCI)
